This is an account of results in patent US5942522A, “Antiviral compounds and antihypertensive compounds” (Schering Corporation, priority 1997, dated 1999).

One data set concerns HSV-2, strain MS. Kind of data set: Prophylactic guinea pig model of HSV infection. The format is in vivo. The conditions noted are these: 60 mg/kg s.c. (test compounds) T.I.D., 10 days, first dose 24 h before infection; for MSL (Maximum Lesion score): scale of 1-4. As for the experimental part:
The in vivo assessment of anti-HSV efficacy was determined in the prophylactic guinea pig model of HSV infection described by Stansberry et al (1982). Dosing of guinea pigs comprised an initial treatment with test compound given 24 hours prior to virus infection and subsequent administration of the compound every eight hours (T.I.D.) for a total of 10 days. Test compounds were administered subcutaneously in 0.5% buffered methyl celluslose at a dose of 60 mg per kg body weight of the animal. Animals were monitored daily for the development of genital lesions and neurological symptomology, both of which were recorded and compared to the results obtained with parallel groups which received placebo or acyclovir treatment. Efficacy was evaluated for each compound by scoring the ability of the compound to ameliorate genital lesions produced by infection with HSV-2, strain MS, expressed as Maximum Lesion Scores (MLS) on a scale of 1 (least lesions) to 4 (severe lesions).

Data set [1] deals with T1, cGMP phosphodiesterase (cGMP-PDE) (Bos taurus, UniProt Q28156).
T1 construct: is a homogeneous enzyme obtained from bovine lung; from tissue; host or cells: bovine lung
The data set can be described thus: Inhibition of cGMP phosphodiesterase in vitro. As to conditions: 1 μM 3H-cGMP, pH 7.5, 25 min, room temperature. It is filed as biochemical, bovine.

For another data set, the system named is HSV-2 (strain MS). Kind of data set: HSV-β-Gal assay: transient expression of beta galactosidase in transfected HeLa cells superinfected with HSV-2. It is filed as cell-based. As for the experimental part: (§1) HeLa and Vero cell cultures were maintained in Eagles Minimal Essential Medium (EMEM) which was supplemented with glutamine, penicillin, streptomycin and 10% fetal calf serum (10% EMEM). Stock cultures of HSV-2 (strain MS available from ATCC VR-540) were grown in and harvested from Vero cells. Viral stocks were titered in Vero cells according to established procedures.
Plasmid pON 245^ori- contains the promoter of the HSV-1 thymidine kinase (tk) gene located immediately 5'of the E. coli lac Z gene. In this arrangement, the tk promoter controls transcription from the bacterial gene in transient expression assays. Additionally, an SV40 polyadenylation signal is present at the 3' end of the lac Z gene to allow for the efficient translation of the mRNA in eucaryotic cells. The expression of beta galactosidase in a transient assay using pON 245^ori- is dependent upon superinfection of the transfected cells with HSV. […] For example see U.S. application Ser. No. 07/435,491 filed Sep. 5, 1989, the disclosure of which is incorporated herein by reference thereto.
HeLa cells were seeded into 96 well microtiter plates and allowed to grow to 80% confluency (approximately 35000 cells/well). One half microgram of plasmid pON 245^ori- DNA was introduced into the cells of each well by the […] precipitation technique (Grahman and Van der Eb, 1973). Four to six hours later, the cells were rinsed with hank's Balanced Salt Solution (HBSS), overlaid with 10% EMEM and incubated at 37° C. At 24 hours post-transfection, cells were rinsed, overlaid with 10% EMEM again and re-incubated at 37° C. At 48 hours post-transfection, cells were rinsed and overlaid with either EMEM containing 2% fetal calf serum (2% EMEM), 2% EMEM containing HSV-2 (strain MS, Multiplicity of Infection [moi]=5 pfu/cell) or 2% EMEM containing HSV-2 and the appropriate concentration of Schering compound to be tested. Twenty-four hours later, the cells were harvested and assayed for beta galactosidase activity as described below.
All determinations of beta galactosidase activity were performed in 96 well microtiter plates. The intracellular level of beta galactosidase activity in each well was determined from cell lysates of the monolayer cultures. Aliquots were assayed by incubation in the presence of beta galactosidase substrate, 4-methylumbelliferyl-β-D-galactoside (MUG, 125 ug/ml, Sigma), for 2 hours. The generation of fluorescent product was quantified on a Microfluor microfluorimeter (Dynatech) after addition of 0.1M glycine, pH 10.3 (Spaete and Mocarski, 1985). The inhibitory activity of a compound was plotted versus the concentration and an IC50 value (the concentration of compound required to reduce beta glactosidase expression by 50%) was obtained for each compound tested.

Data set [2] in a line: Compound toxicity assay: inhibition of HeLa cell translation (3H-leucine incorporation). The conditions noted are these: human, HeLa cells. The format is cell-based. As for the experimental part: as §1
HeLa cells were treated with inhibitory compound for 24 hours, after which levels of translational activity were assayed.
For assay of translational activity, HeLa cultures were grown to 80% confluency in 96 well microtiter plates, treated with appropriate concentrations of compound in 2% EMEM during an overnight incubation at 37° C., then rinsed with HBSS and overlaid with […] of 2% EMEM containing 8 uCi of tritiated leucine (^3 H-LEU, […], Amersham Corp., Arlington Heights, Ill.). After a 1 hour incubation at 36.5°C., the cells were rinsed twice with phosphate buffered saline (PBS) and lysed in 400 ul/well of 1×PBS, 0.5% sodium dodecyl sulphate (SDS). After a 10 min incubation at 36.5° C., the contents of the well were transferred to a well in a Millititer HA microfiltration plate (Millipore Corp., Bedford, Mass.). The TCA insoluble proteins were precipitated onto the filter disc by a 10 min fixation with 5% TCA, followed by filtration under vacuum and three 10 minute rinses with 95% ethanol. The filters were dried at room temperature, cut from the milltitier plate and transferred to scintillation vials. TCA precipitable counts were assayed in 5 ml of Scintisol (Isolab, Akron, Ohio). The inhibitory activity of a compound was plotted versus the concentration and an IC50 value (that concentration of the compound required to decrease cellular translational activity by 50%) was derived for each compound.

Data set [3] is described as follows: Blood pressure in conscious spontaneously hypertensive rats (SHR). The format is in vivo. As for the experimental part: The ability of the compounds to lower blood pressure can be assessed in vivo in conscious spontaneously hypertensive rats (SHR). SHR are purchased from Taconic Farms, Germantown, N.Y. and are approximately 16-18 weeks old when anesthetized with ether. The caudal ventral tail) artery is cannulated with polyethylene tubing (PE50) and blood pressure and heart rate are recorded as described by Baum, T. et. al, J. Cardiovasc. Pharmacol. Vol 5, pp. 665-667, (1983). Rats are placed into pastic cylindrical cages where they rapidly recover consciousness. Blood pressure and heart rate are allowed to stabilize for approximately 90 minutes prior to compound administration. Compounds are administered orally as solutions or suspensions in 0.4% aqueous methylcellulose vehicle via a feeding needle. The compound or 0.4% aqueous methylcellulose vehicle are given in a volume of 4 ml/kg to SHRs that had been fasted overnight. Alternatively,compounds are administered intravenously. The compound is solubilized with a minimum amount of an organic solvent such as ethanol or dimethylsulfoxide and given in physiological saline. Activity is expressed as the fall in mean blood pressure (MBP) in millimeters of mercury (mm Hg). Compound-induced changes are compared with the changes in an appropriate placebo group.

The next data set has as its system HeLa cells. The data set can be described thus: Compound toxicity assay: inhibition of HeLa cell translation (3H-leucine incorporation). It is filed as cell-based. As to conditions: Homo sapiens, Table II^1, read-out: Cytoxicity 3H-LEU assay IC50.
The test system of another data set is herpes virus. The conditions noted are these: added to lidocaine or lidocaine hydrochloride; cited from earlier work.
In another data set the test system is HSV-1. As to conditions: cited from earlier work.
Another data set relates to HSV-2. The conditions noted are these: cited from earlier work.
Setting [4] is: Table II, read-out: Cytotoxicity 3H-LEU assay IC50.
Setting [5] is: Human alphaherpesvirus 2, Table II^1, HeLa cells, HSV-2 strain MS, 24 h, read-out: Anti-HSV activity HSV-β-Gal assay IC50.

≈ marks a conversion by molar mass, not a printed value. Read-outs that look alike come from different tables or passages of the source. Some results are limits rather than exact numbers.

On to `Nc1nc2c(ncn2COCCO)c(=O)[nH]1` [Acyclovir, 9-[(2-hydroxyethoxy)methyl]guanine, reference compound], for which, in the data set on HSV-2, strain MS, the “Neurological dysfunction (percentage animals developing loss of bladder/hindlimb control)” value turned out to be 44% and the “MSL (Maximum Lesion score)” value stood at 1.61.

As to `CCOC(=O)c1c(OC)c2cc(C)ccc2n(Cc2ccccc2)c1=O` [Compound 7, 1-benzyl-3-ethoxycarbonyl-4-methoxy-6-methyl-2(1H)-quinolinone], the IC50 came out at 8 µM in data set [1] (Table VII) and 3 µg/mL (≈ 8.54 µM) in the data set with HSV-2 (strain MS) (Human alphaherpesvirus 2, HeLa, 24 h, read-out: Anti-HSV activity, HSV-β-GAL assay IC50). For the same molecule, the CC50 at 24 h in [2] (setting [4]) was found to be 37 µg/mL (≈ 105 µM). Further, the “MBP (fall in mean blood pressure)” value in data set [3] (Table VII, at 25 mpk (P.O.)) is reported as 0 mm Hg.

Regarding `CCCCCCn1c(=O)c(CO)c(OC)c2cc(C)ccc21` [Compound 9, 1-Hexyl-3-Hydroxymethyl-4-Methoxy-6-Methyl-2(1H)-Quinolinone], the IC50 is 6 µM in [1] (Table VI) and < 3 µg/mL with HSV-2 (strain MS) (Human alphaherpesvirus 2, Table II, HeLa cells, HSV-2 strain MS, 24 h, read-out: Anti-HSV activity, HSV-β-GAL assay IC50). For the same molecule, the CC50 at 24 h in data set [2] (setting [4]) came out at 25 µg/mL (≈ 82.4 µM). Further, the “Neurological dysfunction (percentage animals developing loss of bladder/hindlimb control)” value in the data set on HSV-2, strain MS came to 44%. The “MSL (Maximum Lesion score)” value in the data set with HSV-2, strain MS was determined as 1.44.

As to `CCOC(=O)c1c(OCCN(C)C)c2cc(C)ccc2n(Cc2ccccc2)c1=O` [Compound 27], 4 µM corresponded to half-maximal inhibition in data set [1] (Table VI) (IC50). The “MBP (fall in mean blood pressure)” value in data set [3] (25 mpk p.o.) is 19 mm of Hg; in [3] (50 mpk p.o.), 24 mm of Hg; in data set [3] (100 mpk p.o.) it was 59 mm of Hg.

As to `CCCCCCn1c(=O)c(C(=O)OCC)c(OC)c2cc(C)ccc21` [Compound 28, 1-hexyl-3-ethoxycarbonyl-4-methoxy-6-methyl-2(1H)-quinolinone], the half-inhibitory concentration (IC50) in data set [1] (Table VI) came out at 3 µM.

Regarding `Cc1c(OC(=O)c2cccn2C)ccc2c(N)cc(=O)oc12` [Compound 69, 4-Amino-7-(N-Methyl-Pyrrol-2-Carbonyloxy)-8-Methyl-Benzopyran-2-one], the 50% inhibitory concentration (IC50) in the data set with HSV-2 (strain MS) (setting [5]) was 9.8 µg/mL (≈ 32.9 µM); in the data set with HeLa cells, 100 µg/mL (≈ 335 µM).

As to `Cc1c(OC(=O)c2ccc[nH]2)ccc2c(N)cc(=O)oc12` [Compound 70, 4-Amino-7-(Pyrrol-2-carbonyloxy)-8-Methyl-Benzopyran-2-one], the half-maximal inhibitory concentration (IC50) in the data set with HSV-2 (strain MS) (setting [5]) worked out at 15.5 µg/mL (≈ 54.5 µM); with HeLa cells, 74 µg/mL (≈ 260 µM).

As for `CCOC(=O)c1c(OC(=O)c2ccc[nH]2)c2ccccc2n(C)c1=O` [Compound 101], the IC50 with HSV-2 (strain MS) (Human alphaherpesvirus 2, HeLa, read-out: HSV: antiHSV activity, HSVβ-Gal Assay, IC50) is 20 µg/mL (≈ 58.8 µM). For the same molecule, the CC50 at 24 h in [2] (Table IV compound, read-out: Cytotoxicity 3H-Leu Assay IC50) was 40 µg/mL (≈ 118 µM).

In the case of `CC(C)(CO)[C@@H](O)C(=O)NCCCO` [dexpanthenol], in the data set on herpes virus, the “enhancement of antiviral activity of lidocaine or lidocaine hydrochloride” value is reported as “significantly enhances”.

In the case of `CCN(CC)CC(=O)Nc1c(C)cccc1C` [lidocaine, 2-(diethylamino)-N-(2,6-dimethylphenyl)acetamide], the “antiviral activity in cell culture” value with HSV-1 and in the data set with HSV-2 was “antiviral agent” throughout.

In the case of `CC(C)(CO)[C@@H](O)C(=O)NCCC(=O)O` [pantothenic acid], the “enhancement of antiviral activity of lidocaine or lidocaine hydrochloride” value in the data set on herpes virus is recorded as “significantly enhances”.

One may read the IC50 as the concentration needed to halve the response being measured.
